# Measured values published in patent US20100104565A1, “COMBINATIONS COMPRISING DMXAA FOR THE TREATMENT OF CANCER” (ANTISOMA RESEARCH LIMITED, priority 2005, published 2010).
# Where two headings read alike, the source gives them in different places.
# Assays:
# [1] = diclofenac 100 mg/kg i.p., cited from earlier work
# [2] = test system: glucoronidation and 6-methylhydroxylation of DMXAA in mouse liver microsomes; conditions: diclofenac 100 μM; cited from earlier work
# [3] = test system: glucoronidation and 6-methylhydroxylation of DMXAA in human liver microsomes; conditions: diclofenac 100 μM; cited from earlier work
# [4] = with thalidomide, cited from earlier work
# [5] = test system: A549 (lung carcinoma) xenografts; assay: A549 human lung carcinoma xenograft study in nude athymic mice; assay type: in vivo
# Description: Xenografts for human lung cancer are set-up in groups of nude, athymic mice. The cell line selected was A549 (ATCC number CCL-185), a lung carcinoma.
# human tumours = conditions: phase I monotherapy, cited from earlier work
smiles,measurement,setting,value
O=C(O)Cc1ccccc1Nc1c(Cl)cccc1Cl [diclofenac],increase in the plasma DMXAA AUC,[1]; female mice,31%
same,increase in DMXAA T1/2,"[1]; male and female mice, P<0.05",threefold increase
same,increase in the plasma DMXAA AUC,[1]; male mice,24%
same,inhibition of 6-methylhydroxylation of DMXAA,[2],> 54%
same,inhibition of glucoronidation of DMXAA,[2],> 70%
same,inhibition of 6-methylhydroxylation of DMXAA,[3],> 54%
same,inhibition of glucoronidation of DMXAA,[3],> 70%
"O=C1CCC(N2C(=O)c3ccccc3C2=O)C(=O)N1 (stereo not drawn) [Thalidomide, thalidomide]",increase of the AUC of DMXAA,[4]; liver,1.8 times
same,increase of the AUC of DMXAA,[4]; plasma,1.8 times
same,increase of the AUC of DMXAA,[4]; spleen,1.8 times
same,increase of the AUC of DMXAA,[4]; tumour,three times
"Cc1ccc2c(=O)c3cccc(CC(=O)O)c3oc2c1C [DMXAA, 5,6-dimethylxanthenone-4-acetic acid]",Drug deaths,"[5]; A549 xenografts, DMXAA 21 mg/kg, Erbitux 33 mg/kg by injection, deaths/mice per group",2/10
same,Response CR,"[5]; Complete Response (cure; undetectable tumour over two weeks), Table 2",0
same,Response PD,"[5]; Progressive Disease (≧50% increase in tumour size), Table 2",2/10
same,Response SD,"[5]; Stable Disease (does not satisfy criteria for PR or PD), Table 2",16
same,Tumour Growth Delay,[5]; difference in days for treated versus control tumours to quadruple in volume,16 days
same,TTP,[5]; median time to disease progression,16 days
same,Regression Duration,[5]; number of days that tumour volume is less than the original treatment volume,0 days
same,Median VQT (Range; days),"[5]; tumour volume quadrupling time, A549 xenografts",48 days
same,tumour blood flow (dynamic MRI),human tumours; well-tolerated doses,significant reduction in tumour blood flow
same,tumour responses,human tumours,very few tumour responses
